Data: PubChem BioAssay (NCI)
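Five compound concentrations were applied to cells in 96-well plates for 48 hours; endpoints were derived by simple linear interpolation of the resulting dose-response curve. Here, GI50 denotes the concentration required for 50% inhibition of growth. TGI is the concentration that stops growth completely.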

Columns and labels:
Test in all cases: NCI tumour cell line growth inhibition, 48 h
MALME-3M melanoma = tested on: MALME-3M melanoma
M14 melanoma = tested on: M14 melanoma
KM12 colon = tested on: KM12 colon
SN12C renal = tested on: SN12C renal
NCI-H460 lung = tested on: NCI-H460 lung
NCI-H522 lung = tested on: NCI-H522 lung
RPMI-8226 leukemia = tested on: RPMI-8226 leukemia
786-0 renal = tested on: 786-0 renal
UACC-257 melanoma = tested on: UACC-257 melanoma
OVCAR-3 ovarian = tested on: OVCAR-3 ovarian
SK-MEL-5 melanoma = tested on: SK-MEL-5 melanoma
COLO 205 colon = tested on: COLO 205 colon
SK-MEL-2 melanoma = tested on: SK-MEL-2 melanoma
DU-145 prostate = tested on: DU-145 prostate
PC-3 prostate = tested on: PC-3 prostate
HOP-62 NSCLC = tested on: HOP-62 NSCLC
ACHN renal = tested on: ACHN renal
A498 renal = tested on: A498 renal
CAKI-1 renal = tested on: CAKI-1 renal
A549 NSCLC = tested on: A549 NSCLC
LOX IMVI melanoma = tested on: LOX IMVI melanoma
MOLT-4 leukemia = tested on: MOLT-4 leukemia
SNB-19 CNS = tested on: SNB-19 CNS
HCC-2998 colon = tested on: HCC-2998 colon
IGROV1 ovarian = tested on: IGROV1 ovarian
UO-31 renal = tested on: UO-31 renal
SF-268 CNS = tested on: SF-268 CNS
CCRF-CEM leukemia = tested on: CCRF-CEM leukemia
HOP-92 NSCLC = tested on: HOP-92 NSCLC
HS 578T breast = tested on: HS 578T breast
SW-620 colon = tested on: SW-620 colon
SF-295 CNS = tested on: SF-295 CNS
U251 CNS = tested on: U251 CNS
TK-10 renal = tested on: TK-10 renal
NCI/ADR-RES ovarian = tested on: NCI/ADR-RES ovarian
SK-MEL-28 melanoma = tested on: SK-MEL-28 melanoma
K-562 leukemia = tested on: K-562 leukemia
UACC-62 melanoma = tested on: UACC-62 melanoma
NCI-H226 lung = tested on: NCI-H226 lung
OVCAR-4 ovarian = tested on: OVCAR-4 ovarian
RXF 393 renal = tested on: RXF 393 renal
SR leukemia = tested on: SR leukemia
MDA-MB-231 breast = tested on: MDA-MB-231 breast
HL-60(TB) leukemia = tested on: HL-60(TB) leukemia
T-47D breast = tested on: T-47D breast
HCT-116 colon = tested on: HCT-116 colon
NCI-H23 lung = tested on: NCI-H23 lung
SF-539 CNS = tested on: SF-539 CNS
HCT-15 colon = tested on: HCT-15 colon
MDA-MB-435 = tested on: MDA-MB-435
OVCAR-5 ovarian = tested on: OVCAR-5 ovarian
MCF7 breast = tested on: MCF7 breast
HT29 colon = tested on: HT29 colon
SK-OV-3 ovarian = tested on: SK-OV-3 ovarian
OVCAR-8 ovarian = tested on: OVCAR-8 ovarian
BT-549 breast = tested on: BT-549 breast
EKVX NSCLC = tested on: EKVX NSCLC

## C/C(Cc1ccc(Cl)cc1)=C(\c1ccc(OCCN2CCCCCC2)cc1)c1ccc(OC(=O)c2ccccc2)cc1
MALME-3M melanoma
  GI50: 1.76 µM
  TGI: 6.56 µM
M14 melanoma
  GI50: 1.01 µM
  TGI: 2.36 µM
KM12 colon
  GI50: 2.36 µM
  TGI: 9.23 µM
SN12C renal
  GI50: 3.19 µM
  TGI: 10.3 µM
NCI-H460 lung
  GI50: 1.61 µM
  TGI: 5.23 µM
NCI-H522 lung
  GI50: 5.78 µM
  TGI: 12.9 µM
RPMI-8226 leukemia
  GI50: 1.16 µM
  TGI: 3.28 µM
786-0 renal
  GI50: 2.99 µM
  TGI: 9.44 µM
UACC-257 melanoma
  GI50: 6.18 µM
  TGI: 13 µM
OVCAR-3 ovarian
  GI50: 3.78 µM
  TGI: 10.2 µM
SK-MEL-5 melanoma
  GI50: 2.3 µM
  TGI: 8.48 µM
COLO 205 colon
  GI50: 1.71 µM
  TGI: 7.34 µM
SK-MEL-2 melanoma
  GI50: 6.92 µM
  TGI: 14 µM
DU-145 prostate
  GI50: 4.26 µM
  TGI: 11.1 µM
PC-3 prostate
  GI50: 1.7 µM
  TGI: 7.29 µM
HOP-62 NSCLC
  GI50: 5.98 µM
  TGI: 12.3 µM
ACHN renal
  GI50: 5.77 µM
  TGI: 12.8 µM
A498 renal
  GI50: 5.37 µM
  TGI: 11.4 µM
CAKI-1 renal
  GI50: 3.08 µM
  TGI: 10.6 µM
A549 NSCLC
  GI50: 4.27 µM
  TGI: 12.6 µM
LOX IMVI melanoma
  GI50: 1.25 µM
  TGI: 3.22 µM
MOLT-4 leukemia
  GI50: 1.29 µM
  TGI: 5.95 µM
SNB-19 CNS
  GI50: 5.29 µM
  TGI: 14.6 µM
HCC-2998 colon
  GI50: 1.38 µM
  TGI: 3.53 µM
IGROV1 ovarian
  GI50: 2.72 µM
  TGI: 10.3 µM
UO-31 renal
  GI50: 1.39 µM
  TGI: 7.3 µM
SF-268 CNS
  GI50: 3.03 µM
  TGI: 10.7 µM
CCRF-CEM leukemia
  GI50: 1.12 µM
  TGI: 3.79 µM
HOP-92 NSCLC
  GI50: 1.1 µM
  TGI: 4.43 µM
HS 578T breast
  GI50: 4.29 µM
  TGI: 14.4 µM
SW-620 colon
  GI50: 2.52 µM
  TGI: 9.7 µM
SF-295 CNS
  GI50: 2.27 µM
  TGI: 8.48 µM
U251 CNS
  GI50: 2.61 µM
  TGI: 8.96 µM
TK-10 renal
  GI50: 6.03 µM
  TGI: 13.3 µM
NCI/ADR-RES ovarian
  GI50: 3.24 µM
  TGI: 11.3 µM
SK-MEL-28 melanoma
  GI50: 1.15 µM
  TGI: 2.94 µM
K-562 leukemia
  GI50: 1.55 µM
  TGI: 5.88 µM
UACC-62 melanoma
  GI50: 1.3 µM
  TGI: 3.9 µM
NCI-H226 lung
  GI50: 8.45 µM
  TGI: 17.5 µM
OVCAR-4 ovarian
  GI50: 1.88 µM
  TGI: 8.51 µM
RXF 393 renal
  GI50: 2.49 µM
  TGI: 9.15 µM
SR leukemia
  GI50: 1.25 µM
  TGI: 3.8 µM
MDA-MB-231 breast
  GI50: 2.15 µM
  TGI: 8.22 µM
HL-60(TB) leukemia
  GI50: 1.62 µM
  TGI: 9.03 µM
T-47D breast
  GI50: 1.43 µM
  TGI: 9.73 µM
HCT-116 colon
  GI50: 1.34 µM
  TGI: 4.54 µM
NCI-H23 lung
  GI50: 4.69 µM
  TGI: 12.6 µM
SF-539 CNS
  GI50: 5.18 µM
  TGI: 11.4 µM
HCT-15 colon
  GI50: 1.73 µM
  TGI: 7.53 µM
MDA-MB-435
  GI50: 2.65 µM
  TGI: 9.27 µM
OVCAR-5 ovarian
  GI50: 4.64 µM
  TGI: 11.7 µM
MCF7 breast
  GI50: 0.358 µM
  TGI: 6.92 µM
HT29 colon
  GI50: 1.64 µM
  TGI: 5.75 µM
SK-OV-3 ovarian
  GI50: 5.8 µM
  TGI: 13.2 µM
OVCAR-8 ovarian
  GI50: 2.85 µM
  TGI: 9.35 µM
BT-549 breast
  GI50: 6.27 µM
  TGI: 12.7 µM
EKVX NSCLC
  GI50: 4.32 µM
  TGI: 16.6 µM
